Results taken from patent US11234964B2, “Use of melatonin for the treatment of tumors” (UNIVERSIDAD DE GRANADA, priority 2017, dated 2022).
“Also recorded” adds a separate entry of the source.

What was measured:
tumor cells [1] = experiment: Mitochondrial changes, oxygen consumption and free radicals in tumor cells; type: cell-based
Excerpt: The relationship between the mitochondrial changes caused by melatonin and the cell death induced by this molecule in these tumor cells was studied. Melatonin increases the number of mitochondria as well as the number of cristae, DNA, and mitochondrial mass. The result is an increase in respiratory chain complexes, and accordingly an increase in oxygen consumption, which is related to an increase in free radicals and oxidative stress reflected by an increase in the GSSG/GSH ratio. However, the antioxidant capacity is not modified. The activity and the expression of antioxidant enzymes such as GPx and the GRd is not modified either. […] In other words, mitochondrial activity increases, and accordingly free radicals which induce cell death also increase. To carry out the assays, CAL-27 and SCC9 cells have been used as typical example of head and neck squamous cell carcinoma (HNSCC) cancer cells.

SCC-9 cells = experiment: Mitochondrial function and free radicals in melatonin-resistant cells; type: cell-based
Excerpt: The relationship between the mitochondrial changes caused by melatonin and the cell death induced by this molecule in these tumor cells was studied. Melatonin increases the number of mitochondria as well as the number of cristae, DNA, and mitochondrial mass. The result is an increase in respiratory chain complexes, and accordingly an increase in oxygen consumption, which is related to an increase in free radicals and oxidative stress reflected by an increase in the GSSG/GSH ratio. However, the antioxidant capacity is not modified. The activity and the expression of antioxidant enzymes such as GPx and the GRd is not modified either. […] To carry out the assays, CAL-27 and SCC9 cells have been used as typical example of head and neck squamous cell carcinoma (HNSCC) cancer cells.

tumor cells (CAL-27) = experiment: Cell death, apoptosis and proliferation of tumor cells in vitro; type: cell-based
Excerpt: To carry out the assays, CAL-27 and SCC9 cells have been used as typical example of head and neck squamous cell carcinoma (HNSCC) cancer cells. […] The relationship between the mitochondrial changes caused by melatonin and the cell death induced by this molecule in these tumor cells has been studied. Melatonin increases mitochondrial mass, mitochondrial DNA, the number of mitochondria, as well as the number of mitochondrial cristae. The result is an increase in respiratory chain complexes, and accordingly an increase in oxygen consumption, which is related to an increase in free radicals and oxidative stress. […] In other words, the cytotoxic effects of melatonin in the tumor cells are related to an increase in mitochondrial function, and the increase in mitochondrial function in the tumor cell in turn induces apoptosis processes, which also entails the inhibition of protein synthesis.

CAL-27 tumor cells = experiment: GPx and GRd antioxidant enzyme activity in tumor cells; type: cell-based
Excerpt: The relationship between the mitochondrial changes caused by melatonin and the cell death induced by this molecule in these tumor cells was studied. Melatonin increases the number of mitochondria as well as the number of cristae, DNA, and mitochondrial mass. The result is an increase in respiratory chain complexes, and accordingly an increase in oxygen consumption, which is related to an increase in free radicals and oxidative stress reflected by an increase in the GSSG/GSH ratio. However, the antioxidant capacity is not modified. The activity and the expression of antioxidant enzymes such as GPx and the GRd is not modified either.

[2] = test system: CAL-27 and SCC9 cells xenografts; experiment: Tumor volume in xenografted mice (photographs, NMR analysis); type: in vivo, athymic nude mice (nu/nu); settings: for tumor volume: intratumoral injection
Procedure: (§1) For the in vivo assays, athymic nude mice (nu/nu) (Janvier, Pays de la Loire, France) of about 5-6 weeks of age (18-20 g) were used. The animals were held in the animal housing unit of the Biomedical Research Center of University of Granada (CIBM) in sterile conditions and under controlled photoperiod (12:12 h) and temperature (22±1° C.) environments, with ad libitum water and laboratory diet. The handling and transplant of the animals was carried out in a laminar flow biosafety cabinet. The animals were anesthetized with an i.p. injection of ketamine (80 mg/kg) and xylazine (4 mg/kg).
(§2) Xenografts were performed with CAL-27 and SCC9 cells (the latter being resistant to melatonin). Cells enzymatically separated with trypsin-EDTA are resuspended at a concentration of 4×10^6 cells per mouse in PBS. Cell viability is determined by means of the Trypan Blue test. The cells are injected into the left flank of the mouse, with a volume of 200 μL of cell suspension being injected into each mouse with the help of a 1 mL syringe with a needle measuring 16×0.5 mm.
The body weight and tumor size are measured and recorded two or three times a week throughout the experiment. The tumor volume is calculated using the following formula: ½ (L×W2) (mm^3), where L is the length and W is the width. After the appearance of a tumoral node (100 mm^3), the mice carrying the tumors are randomly assigned to several groups.
The experimental groups were as follows: • 1. Mouse with untreated tumor • 2. Mouse with tumor treated with subcutaneously administered melatonin (s.c.) at a dose of 300 mg/kg (4.5% w/v melatonin solution). The concentration of melatonin in the tumor when melatonin is administered through this route is 10 ng/mg of proteins. • 3. Mouse with tumor treated with administered intratumorally melatonin (60 μl of a 0.1% w/v melatonin solution) fora tumor volume of 100 mm^3. 0.1% of melatonin is the minimum effective dose (in vitro) for inducing 80% cell death. When 0.1% of melatonin is administered, a concentration of 450 ng/mg of proteins is reached in the tumor. • 4. Mouse with tumor treated with intratumorally melatonin administered (60 μl of a 4.5% melatonin solution) for a tumor volume of 100 mm^3.
Therefore, once the tumor reached the indicated volume of 100 mm^3, it is treated with melatonin daily for 21 days according to the following protocol: • A. Injected s.c. (300 mg/kg which is equivalent to a 4.5% solution) • B. Injected directly into the tumor (60 μl of a 0.1% melatonin solution) • C. Injected directly into the tumor (60 μl of a 4.5% melatonin solution) • D. Injected directly into the tumor (60 μl of a 0.1% melatonin solution) until the complete disappearance of the tumor (28 days). • E. Photographs of the tumor were taken at the end of the treatment of each of the groups. […]

[3] = athymic nude (nu/nu), mouse, in vivo
Procedure: as §1, §2
The experimental groups were as follows: • 1. […]
The concentration of melatonin in the tumors was measured after sacrificing the animals after 21 days. When it is injected directly into the tumor, the concentration of melatonin cannot be measured due to the limited amount of sample taking into account that the tumor practically disappears.

tumor cells [4] = experiment: Melatonin penetration in tumor cells in vitro; type: cell-based; settings: cells incubated with 1500 μM melatonin for 24 hours
Procedure: To carry out the assays, CAL-27 and SCC9 cells have been used as typical example of head and neck squamous cell carcinoma (HNSCC) cancer cells.
In the in-vitro experiments, the tumor cells were incubated with different concentrations of melatonin. It was observed that melatonin readily enters the tumor cells, reaching levels of 450 ng/mg of proteins after incubating the cells with melatonin at a dose of 1500 μM for 24 hours (FIG. 1).

**Q.** For `COc1ccc2[nH]cc(CCNC(C)=O)c2c1` [melatonin, N-acetyl-5-methoxytryptamine], which ATP production (tumor cells [1]) is on record?
**A.** does not increase

**Q.** What about the “GSSG/GSH ratio (oxidative stress)” value (tumor cells [1]) of the same compound?
**A.** increase

**Q.** What about the free radicals (tumor cells [1]) of the same compound?
**A.** increase

**Q.** What about the “intermediate products of the Krebs cycle (metabolomics)” value (tumor cells [1]) of the same compound?
**A.** increase

**Q.** And the “mitochondrial DNA” value (tumor cells [1])?
**A.** increases

**Q.** And the mitochondrial mass (tumor cells [1])?
**A.** increases

**Q.** What about the “number of mitochondria and number of cristae” value (tumor cells [1]) of the same compound?
**A.** increases

**Q.** What about the oxygen consumption (tumor cells [1]) of the same compound?
**A.** increase

**Q.** What about the “mitochondrial oxygen consumption and production of free radicals” value (SCC-9 cells; SCC-9 cells, compared with CAL-27) of the same compound?
**A.** less production of reactive oxygen species; also recorded: much lower

**Q.** What about the “sensitivity of cells to melatonin” value (SCC-9 cells; SCC-9 head and neck cancer cells) of the same compound?
**A.** more resistant

**Q.** And the cell cycle (tumor cells (CAL-27))?
**A.** stopping of cell cycle in the S and G2 phases

**Q.** What about the cell proliferation (tumor cells (CAL-27)) of the same compound?
**A.** Inhibition

**Q.** What about the “size and number of colonies of tumor cells” value (tumor cells (CAL-27); CAL-27 irradiated and treated with melatonin) of the same compound?
**A.** significant decrease

**Q.** What about the “minimum effective dose (in vitro) for inducing 80% cell death” value (tumor cells (CAL-27); in vitro) of the same compound?
**A.** 0.1%

**Q.** And the apoptosis (tumor cells (CAL-27); tumor cells, high concentrations)?
**A.** increases apoptosis in a dose and time dependent manner

**Q.** And the SOD (CAL-27 tumor cells)?
**A.** slight increase

**Q.** And the antioxidant capacity (CAL-27 tumor cells)?
**A.** not modified

**Q.** What about the “GPx and GRd antioxidant enzyme activity” value (CAL-27 tumor cells; CAL-27 tumor cells) of the same compound?
**A.** not modified; also recorded: does not increase

**Q.** What about the tumor volume ([2]; 21 days after treatment) of the same compound?
**A.** decreases drastically; also recorded: disappearing almost completely; also recorded: the decrease in tumor volume is so drastic that the tumor can hardly be observed

**Q.** And the tumor volume ([2]; 28 days after treatment)?
**A.** completely disappears; also recorded: disappears completely; also recorded: virtually disappeared

**Q.** And the “necrotic areas in tumors (NMR images)” value ([2]; s.c. administered melatonin)?
**A.** certain necrotic areas are observed

**Q.** What about the “tumor volume with respect to the control” value ([2]; subcutaneous (systemic route), 300 mg/kg, 21 days) of the same compound?
**A.** decreases very little; also recorded: the decrease in tumor volume is much lower; also recorded: the tumor volume decreases, although the effect is not very significant

**Q.** What about the “concentration of melatonin reached in the tumor” value [3] of the same compound?
**A.** 450 ng/mg of proteins

**Q.** And the “melatonin levels in tumor cells” value (tumor cells [4])?
**A.** 450 ng/mg of proteins
